In the NIST ThermoML archive (doi:10.1016/j.jct.2011.02.008):

Experiment: xn = mol fraction of the nth substance listed
Details: Liquid, Vibrating tube method

COC(=O)c1ccccc1 [methyl benzoate] + C1CCCCC1
mass density [kg/m3]
Details	x1 = 0.0985	x1 = 0.1963	x1 = 0.2939	x1 = 0.3942	x1 = 0.4955	x1 = 0.596	x1 = 0.6975	x1 = 0.7993	x1 = 0.8982
278.15 K, 100 kPa	823.9	855.7	887.6	919.6	951.4	983.4	1014.3	1043.9	1072.7
278.15 K, 1000 kPa	824.5	856.4	888.3	920.2	952	984	1014.9	1044.4	1073.2
278.15 K, 5000 kPa	827.6	859.3	891.2	923	954.8	986.7	1017.4	1046.9	1075.6
278.15 K, 10000 kPa	831.2	863	894.7	926.4	958	989.9	1020.5	1049.8	1078.5
278.15 K, 15000 kPa	834.6	866.3	898	929.7	961.2	993	1023.5	1052.8	1081.3
278.15 K, 20000 kPa	838	869.6	901.3	932.8	964.3	996	1026.4	1055.6	1084.1
278.15 K, 25000 kPa	841.2	872.8	904.4	935.9	967.3	998.9	1029.3	1058.3	1086.7
278.15 K, 30000 kPa	844.4	875.9	907.4	938.9	970.2	1001.7	1032	1061	1089.3
278.15 K, 35000 kPa	847.4	878.9	910.4	941.8	973	1004.5	1034.7	1063.6	1091.9
278.15 K, 40000 kPa	850.5	881.8	913.3	944.6	975.8	1007.2	1037.4	1066.2	1094.4
278.15 K, 45000 kPa	–	884.6	916.1	947.4	978.5	1009.9	1040	1068.7	1096.9
278.15 K, 50000 kPa	–	887.4	918.8	950	981.1	1012.5	1042.5	1071.2	1099.3
278.15 K, 55000 kPa	–	890.1	921.5	952.7	983.7	1015	1045	1073.7	1101.7
278.15 K, 60000 kPa	–	892.6	923.9	955.1	986.3	1017.4	1047.3	1075.9	1103.8
288.15 K, 100 kPa	814.3	846.1	878	909.9	941.8	973.8	1004.7	1034.2	1063.1
288.15 K, 1000 kPa	815	846.9	878.7	910.6	942.4	974.5	1005.3	1034.8	1063.7
288.15 K, 5000 kPa	818.2	850	881.8	913.6	945.3	976.6	1008	1037.5	1066.2
288.15 K, 10000 kPa	822	853.8	885.5	917.2	948.8	980.7	1011.3	1040.6	1069.2
288.15 K, 15000 kPa	825.8	857.4	889.1	920.7	952.2	983.9	1014.4	1043.6	1072.2
288.15 K, 20000 kPa	829.2	860.9	892.5	924	955.4	987.1	1017.5	1046.6	1075
288.15 K, 25000 kPa	832.7	864.3	895.8	927.2	958.6	990.1	1020.5	1049.5	1077.9
288.15 K, 30000 kPa	836	867.5	899	930.3	961.6	993.1	1023.4	1052.3	1080.6
288.15 K, 35000 kPa	839.1	870.7	902.1	933.4	964.6	996	1026.2	1055	1083.3
288.15 K, 40000 kPa	842.2	873.7	905.1	936.3	967.5	998.8	1028.9	1057.7	1085.9
288.15 K, 45000 kPa	845.2	876.7	908	939.2	970.3	1001.6	1031.6	1060.3	1088.4
288.15 K, 50000 kPa	848.1	879.6	910.9	942	973	1004.3	1034.3	1062.9	1090.9
288.15 K, 55000 kPa	850.9	882.4	913.6	944.7	975.7	1006.9	1036.8	1065.5	1093.4
288.15 K, 60000 kPa	853.5	885	916.2	947.2	978.2	1009.3	1039.2	1067.8	1095.9
298.15 K, 100 kPa	804.8	836.5	868.4	900.3	932.2	964.2	995.1	1024.7	1053.6
298.15 K, 1000 kPa	805.6	837.3	869.2	901	932.9	964.9	995.8	1025.3	1054.2
298.15 K, 5000 kPa	809	840.7	872.5	904.2	935.9	967.9	998.6	1028.1	1056.9
298.15 K, 10000 kPa	813.1	844.7	876.3	908	939.6	971.4	1002	1031.4	1060
298.15 K, 15000 kPa	817.1	848.6	880.1	911.7	943.2	974.8	1005.4	1034.6	1063.1
298.15 K, 20000 kPa	820.8	852.2	883.7	915.2	946.6	978.2	1008.5	1037.7	1066.1
298.15 K, 25000 kPa	824.4	855.8	887.2	918.6	949.9	981.4	1011.7	1040.7	1069
298.15 K, 30000 kPa	827.9	859.2	890.5	921.9	953.1	984.5	1014.7	1043.6	1071.9
298.15 K, 35000 kPa	831.2	862.5	893.8	925	956.2	987.5	1017.7	1046.5	1074.7
298.15 K, 40000 kPa	834.4	865.7	896.9	928.1	959.2	990.5	1020.5	1049.3	1077.4
298.15 K, 45000 kPa	837.5	868.8	900	931.1	962.1	993.4	1023.3	1052.1	1080.1
298.15 K, 50000 kPa	840.5	871.8	902.9	934	965	996.2	1026.1	1054.7	1082.7
298.15 K, 55000 kPa	843.4	874.7	905.8	936.9	967.8	999	1028.8	1057.4	1085.3
298.15 K, 60000 kPa	846.1	877.3	908.6	939.5	970.3	1001.4	1031.3	1059.9	1087.8
308.15 K, 100 kPa	795.4	827	858.8	890.8	922.6	954.7	985.6	1015.2	1044.1
308.15 K, 1000 kPa	796.2	827.8	859.6	891.5	923.4	955.4	986.3	1015.9	1044.7
308.15 K, 5000 kPa	799.8	831.2	863.1	894.9	926.6	958.5	989.3	1018.7	1047.5
308.15 K, 10000 kPa	804.3	835.7	867.2	898.9	930.5	962.3	992.9	1022.2	1050.8
308.15 K, 15000 kPa	808.3	839.8	871.2	902.8	934.2	965.9	996.4	1025.6	1054.1
308.15 K, 20000 kPa	812.3	843.6	875	906.5	937.8	969.4	999.8	1028.8	1057.2
308.15 K, 25000 kPa	816.1	847.3	878.7	910	941.3	972.8	1003	1032	1060.3
308.15 K, 30000 kPa	819.7	850.9	882.2	913.5	944.6	976	1006.2	1035	1063.3
308.15 K, 35000 kPa	823.2	854.4	885.6	916.8	947.9	979.2	1009.3	1038	1066.2
308.15 K, 40000 kPa	826.5	857.7	888.9	920	951	982.3	1012.3	1041	1069
308.15 K, 45000 kPa	829.8	861	892.1	923.2	954.1	985.3	1015.2	1043.8	1071.8
308.15 K, 50000 kPa	833	864.1	895.1	926.2	957.1	988.2	1018.1	1046.6	1074.6
308.15 K, 55000 kPa	836	867.1	898.2	929.2	960	991.1	1020.9	1049.3	1077.2
308.15 K, 60000 kPa	838.8	869.5	900.9	931.9	962.7	993.7	1023.4	1051.9	1079.9
318.15 K, 100 kPa	785.8	817.4	849.2	881.3	913.1	945.2	976.1	1005.8	1034.6
318.15 K, 1000 kPa	786.8	818.3	850.1	882.1	913.9	945.9	976.8	1006.5	1035.2
318.15 K, 5000 kPa	790.7	822	853.8	885.7	917.3	949.3	980	1009.5	1038.2
318.15 K, 10000 kPa	795.2	826.6	858.2	889.9	921.4	953.2	983.8	1013.1	1041.7
318.15 K, 15000 kPa	799.7	830.9	862.4	893.9	925.4	957	987.5	1016.7	1045.1
318.15 K, 20000 kPa	803.8	835.1	866.4	897.8	929.1	960.7	991	1020.1	1048.4
318.15 K, 25000 kPa	807.8	839	870.2	901.5	932.7	964.2	994.4	1023.3	1051.6
318.15 K, 30000 kPa	811.6	842.8	–	–	–	–	–	–	–
